Test results published in patent US9399626B2, “2-thiopyrimidinones” (Pfizer Inc., priority 2011, dated 2016).
Where a name gives a salt, the structure may show the parent alone.

target: T1, MPO (purified from human polynuclear leukocytes) (Homo sapiens, UniProt P05164); assay: MPO Amplex Red Activity Assay; type: biochemical; details: Table 1, 2 μM H2O2, pH 7.4
T1 construct: purified from human polynuclear leukocytes; purchased Calbiochem/EMD Biosciences; host or cells: human polynuclear leukocytes (natural source)
In short: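 Potency is given as kinact/KI: kobs values from 600 s progress curves, minus the uninhibited rate, are fit against inhibitor concentration. Reactions use 2 μM H2O2, 30 μM Amplex Red, pH 7.4 phosphate buffer with NaCl, DTPA and 2% DMSO, started with […] human MPO. Readout is resorufin fluorescence, catalase background subtracted.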

T1 sequence (P05164 279-745 limits assumed): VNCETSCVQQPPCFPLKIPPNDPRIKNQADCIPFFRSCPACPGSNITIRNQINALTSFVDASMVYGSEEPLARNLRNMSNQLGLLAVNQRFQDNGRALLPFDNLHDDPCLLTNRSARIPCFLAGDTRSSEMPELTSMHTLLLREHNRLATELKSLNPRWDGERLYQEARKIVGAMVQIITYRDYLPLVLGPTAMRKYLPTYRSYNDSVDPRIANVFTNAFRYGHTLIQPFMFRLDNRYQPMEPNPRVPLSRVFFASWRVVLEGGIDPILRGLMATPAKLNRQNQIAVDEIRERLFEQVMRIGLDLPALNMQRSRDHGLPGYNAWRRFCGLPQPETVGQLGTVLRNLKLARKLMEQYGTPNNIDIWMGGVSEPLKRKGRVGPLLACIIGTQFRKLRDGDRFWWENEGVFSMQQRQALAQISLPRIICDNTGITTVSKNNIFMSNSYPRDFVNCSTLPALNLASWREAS
T1 sequence (P05164 165-273 limits assumed): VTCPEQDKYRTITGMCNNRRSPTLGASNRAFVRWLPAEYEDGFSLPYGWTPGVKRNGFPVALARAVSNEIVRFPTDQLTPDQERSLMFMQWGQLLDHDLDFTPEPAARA

| SMILES | MPO kinact/Ki |
| --- | --- |
| COc1ccc(-c2cc(=O)[nH]c(=S)n2CC(C)(C)CO)c(OC)c1 [Example 224, 6-(2,4-dimethoxyphenyl)-1-(3-hydroxy-2,2-dimethylpropyl)-2-thioxo-2,3-dihydropyrimidin-4(1H)-one] | 3280 1/s per M |
| NCCn1c(-c2cccc3ccoc23)cc(=O)[nH]c1=S [Example 143, 1-(2-aminoethyl)-6-(1-benzofuran-7-yl)-2-thioxo-2,3-dihydropyrimidin-4(1H)-one hydrochloride] | 8110 1/s per M |
| COc1ccc(-c2cc(=O)[nH]c(=S)n2CCCC[C@H](N)C(N)=O)c(OC)c1 [Example 260, 6-[6-(2,4-dimethoxyphenyl)-4-oxo-2-thioxo-3,4-dihydropyrimidin-1(2H)-yl]norleucinamide hydrochloride] | 19700 1/s per M |
| COc1ccc(-c2cc(=O)[nH]c(=S)n2CCCCNC(=N)N)c(OC)c1 [Example 253, 1-{4-[6-(2,4-dimethoxyphenyl)-4-oxo-2-thioxo-3,4-dihydropyrimidin-1(2H)-yl]butyl}guanidine] | 12700 1/s per M |
| NCCn1c(-c2cccc(Br)c2)cc(=O)[nH]c1=S [Example 183, 1-(2-aminoethyl)-6-(3-bromophenyl)-2-thioxo-2,3-dihydropyrimidin-4(1H)-one hydrochloride] | 4830 1/s per M |
| COc1ccc(-c2cc(=O)[nH]c(=S)n2C[C@@H]2CCCO2)c(OC)c1 [Example 213, 6-(2,4-dimethoxyphenyl)-1-[(2S)-tetrahydrofuran-2-ylmethyl]-2-thioxo-2,3-dihydropyrimidin-4(1H)-one] | 4690 1/s per M |
| COc1ccc(-c2cc(=O)[nH]c(=S)n2CCOC(C)=O)c(OC)c1 [Example 222, 2-[6-(2,4-dimethoxyphenyl)-4-oxo-2-thioxo-3,4-dihydropyrimidin-1(2H)-yl]ethyl acetate] | 9820 1/s per M |
| COCCn1c(-c2cnc(N(C)C)cc2OC)cc(=O)[nH]c1=S [Example 338, 6-[6-(dimethylamino)-4-methoxypyridin-3-yl]-1-(2-methoxyethyl)-2-thioxo-2,3-dihydropyrimidin-4(1H)-one] | 1280 1/s per M |
| COc1cc2ccccc2cc1-c1cc(=O)[nH]c(=S)n1CC(N)=O [Example 112, 2-[6-(3-methoxy-2-naphthyl)-4-oxo-2-thioxo-3,4-dihydropyrimidin-1(2H)-yl]acetamide] | 14900 1/s per M |
| COc1ccc(-c2cc(=O)[nH]c(=S)n2CC(=O)NC(=N)N)c(OC)c1 [Example 236, N-[amino(imino)methyl]-2-[6-(2,4-dimethoxyphenyl)-4-oxo-2-thioxo-3,4-dihydropyrimidin-1(2H)-yl]acetamide trifluoroacetate] | 5740 1/s per M |
| COc1ccc(-c2cc(=O)[nH]c(=S)n2CCCN)c(OC)c1 [Example 178, 1-(3-aminopropyl)-6-(2,4-dimethoxyphenyl)-2-thioxo-2,3-dihydropyrimidin-4(1H)-one formate] | 11100 1/s per M |
| COc1nc(C)ccc1-c1cc(=O)[nH]c(=S)n1CCO [Example 21, 1-(2-hydroxyethyl)-6-(2-methoxy-6-methylpyridin-3-yl)-2-thioxo-2,3-dihydropyrimidin-4(1H)-one] | 4530 1/s per M |
| COCCn1c(-c2ccccc2OC(F)(F)F)cc(=O)[nH]c1=S [Example 118, 1-(2-methoxyethyl)-2-thioxo-6-[2-(trifluoromethoxy)phenyl]-2,3-dihydropyrimidin-4(1H)-one] | 5500 1/s per M |
| COCCn1c(-c2ccc3c(c2)OCCO3)cc(=O)[nH]c1=S [Example 326, 6-(2,3-dihydro-1,4-benzodioxin-6-yl)-1-(2-methoxyethyl)-2-thioxo-2,3-dihydropyrimidin-4(1H)-one] | 7480 1/s per M |
| COCCn1c(-c2cccc(OC)c2)cc(=O)[nH]c1=S [Example 293, 1-(2-methoxyethyl)-6-(3-methoxyphenyl)-2-thioxo-2,3-dihydropyrimidin-4(1H)-one] | 1810 1/s per M |
| COCCn1c(-c2cc(C)ccc2OC)cc(=O)[nH]c1=S [Example 312, 1-(2-methoxyethyl)-6-(2-methoxy-5-methylphenyl)-2-thioxo-2,3-dihydropyrimidin-4(1H)-one] | 17100 1/s per M |
| COc1ccc(Cl)cc1-c1cc(=O)[nH]c(=S)n1CC1CCNCC1 [Example 132, 6-(5-chloro-2-methoxyphenyl)-1-(piperidin-4-ylmethyl)-2-thioxo-2,3-dihydropyrimidin-4(1H)-one hydrochloride] | 3840 1/s per M |
| COc1ccc(-c2cc(=O)[nH]c(=S)n2CCS(N)(=O)=O)c(OC)c1 [Example 248, 2-[6-(2,4-dimethoxyphenyl)-4-oxo-2-thioxo-3,4-dihydropyrimidin-1(2H)-yl]ethanesulfonamide] | 3590 1/s per M |
| COc1ccc(-c2cc(=O)[nH]c(=S)n2Cc2ccccn2)c(OC)c1 [Example 230, 6-(2,4-dimethoxyphenyl)-1-(pyridin-2-ylmethyl)-2-thioxo-2,3-dihydropyrimidin-4(1H)-one] | 1740 1/s per M |
| COCCn1c(-c2cccnc2)cc(=O)[nH]c1=S [Example 279, 1-(2-methoxyethyl)-6-pyridin-3-yl-2-thioxo-2,3-dihydropyrimidin-4(1H)-one] | 386 1/s per M |
| COc1ccc(-c2cc(=O)[nH]c(=S)n2CC(=O)NCC(N)=O)c(OC)c1 [Example 254, N~2~-{[6-(2,4-dimethoxyphenyl)-4-oxo-2-thioxo-3,4-dihydropyrimidin-1(2H)-yl]acetyl}glycinamide] | 5630 1/s per M |

same assay, conditions: Table 1A, 2 μM H2O2, pH 7.4

| SMILES | MPO kinact/Ki |
| --- | --- |
| NC(=O)Cn1c(-c2ccc3c(c2)OCCO3)cc(=O)[nH]c1=S [Example 358, 2-[6-(2,3-dihydro-1,4-benzodioxin-6-yl)-4-oxo-2-thioxo-3,4-dihydropyrimidin-1(2H)-yl]acetamide] | 1710 1/s per M |
| COc1ccc(F)cc1-c1cc(=O)[nH]c(=S)n1CCCNC(=N)NC#N [Example 447, 1-cyano-3-{3-[6-(5-fluoro-2-methoxyphenyl)-4-oxo-2-thioxo-3,4-dihydropyrimidin-1(2H)-yl]propyl}guanidine] | 17200 1/s per M |
| COc1ccc(-c2cc(=O)[nH]c(=S)n2CC(=O)NCCCN)c(OC)c1 [Example 442, N-(3-aminopropyl)-2-[6-(2,4-dimethoxyphenyl)-4-oxo-2-thioxo-3,4-dihydropyrimidin-1(2H)-yl]acetamide] | 12300 1/s per M |
| COc1ccc(-c2cc(=O)[nH]c(=S)n2CC(=O)N(C)CCN)c(OC)c1 [Example 390, N-(2-aminoethyl)-2-[6-(2,4-dimethoxyphenyl)-4-oxo-2-thioxo-3,4-dihydropyrimidin-1(2H)-yl]-N-methylacetamide] | 6250 1/s per M |
| COc1ccc(-c2cc(=O)[nH]c(=S)n2CC(N)=O)cc1 [Example 410, 2-[6-(4-methoxyphenyl)-4-oxo-2-thioxo-3,4-dihydropyrimidin-1(2H)-yl]acetamide] | 3150 1/s per M |
| COc1cc(Cl)ccc1-c1cc(=O)[nH]c(=S)n1CC(N)=O [Example 417, 2-[6-(4-chloro-2-methoxyphenyl)-4-oxo-2-thioxo-3,4-dihydropyrimidin-1(2H)-yl]acetamide] | 9280 1/s per M |
| N=C(N)NCCn1c(-c2cc(Cl)ccc2OCCO)cc(=O)[nH]c1=S [Example 448, 1-(2-{6-[5-chloro-2-(2-hydroxyethoxy)phenyl]-4-oxo-2-thioxo-3,4-dihydropyrimidin-1(2H)-yl}ethyl)guanidine] | 6490 1/s per M |
| COc1ccc(-c2cc(=O)[nH]c(=S)n2CC(=O)N[C@H]2C[C@H](N)C2)c(OC)c1 [Example 437, N-(trans-3-aminocyclobutyl)-2-[6-(2,4-dimethoxyphenyl)-4-oxo-2-thioxo-3,4-dihydropyrimidin-1(2H)-yl]acetamide] | 3400 1/s per M |
| COc1ccc(-c2cc(=O)[nH]c(=S)n2CC(=O)NCC(F)(F)CN)c(OC)c1 [Example 443, N-(3-amino-2,2-difluoropropyl)-2-[6-(2,4-dimethoxyphenyl)-4-oxo-2-thioxo-3,4-dihydropyrimidin-1(2H)-yl]acetamide] | 7330 1/s per M |
| COC(=O)/N=C(/N)NCCCn1c(-c2cc(Cl)ccc2OC)cc(=O)[nH]c1=S [Example 350, Methyl[amino({3-[6-(5-chloro-2-methoxyphenyl)-4-oxo-2-thioxo-3,4-dihydropyrimidin-1(2H)-yl]propyl}amino)methylidene]carbamate] | 8740 1/s per M |
| O=c1cc(-c2ccc(F)cc2OCCO)n(CCO)c(=S)[nH]1 [Example 413, 6-[4-fluoro-2-(2-hydroxyethoxy)phenyl]-1-(2-hydroxyethyl)-2-thioxo-2,3-dihydropyrimidin-4(1H)-one] | 6560 1/s per M |
| CNCCCn1c(-c2cc(F)ccc2OC)cc(=O)[nH]c1=S [Example 374, 6-(5-fluoro-2-methoxyphenyl)-1-[3-(methylamino)propyl]-2-thioxo-2,3-dihydropyrimidin-4(1H)-one] | 4600 1/s per M |
| NCCCn1c(-c2cc(F)ccc2OCCO)cc(=O)[nH]c1=S [Example 406, 1-(3-aminopropyl)-6-[5-fluoro-2-(2-hydroxyethoxy)phenyl]-2-thioxo-2,3-dihydropyrimidin-4(1H)-one] | 4480 1/s per M |
| NCCn1c(-c2ccccc2OC(F)(F)F)cc(=O)[nH]c1=S [Example 382, 1-(2-aminoethyl)-2-thioxo-6-[2-(trifluoromethoxy)phenyl]-2,3-dihydropyrimidin-4(1H)-one] | 2310 1/s per M |
| NCCn1c(-c2cccc3ncsc23)cc(=O)[nH]c1=S [Example 362, 1-(2-aminoethyl)-6-(1,3-benzothiazol-7-yl)-2-thioxo-2,3-dihydropyrimidin-4(1H)-one] | 2690 1/s per M |
